Our source for the IC50 values is patent publication US11337970B2, “Inhibitors of indoleamine 2,3-dioxygenase and methods of their use” (BRISTOL-MYERS SQUIBB COMPANY, priority 2016, dated 2022).

The target of one test is T1, human IDO1 (Homo sapiens, UniProt P14902).
T1 construct: expressed in transfected cells
The test is described as follows: IDO inhibition assay in HEK293 cells stably expressing human IDO1 (kynurenine, Ehrlich reagent). The format is cell-based. Particulars: 20 hours incubation, absorbance at 490 nm, read-out: IDO1 HEK Human IC50. How it is done:
HEK293 cells were transfected with a pCDNA-based mammalian expression vector harboring human IDO1 cDNA (NM 002164.2) by electroporation. They were cultured in medium (DMEM with 10% FBS) containing 1 mg/ml G418 for two weeks. Clones of HEK293 cells that stably expressed human IDO1 protein were selected and expanded for IDO inhibition assay.
The human IDO1/HEK293 cells were seeded at 10,000 cells per 50 μL per well with RPMI/phenol red free media contains 10% FBS in a 384-well black wall clear bottom tissue culture plate (Matrix Technologies LLC) 100 nL of certain concentration of compound was then added to each well using ECHO liquid handling systems. The cells were incubated for 20 hours in 37° C. incubator with 5% CO2.
The compound treatments were stopped by adding trichloroacetic acid (Sigma-Aldrich) to a final concentration at 0.2%. The cell plate was further incubated at 50° C. for 30 minute. The equal volume supernatant (20 μL) and 0.2% (w/v) Ehrlich reagent (4-dimethylaminobenzaldehyde, Sigma-Aldrich) in glacial acetic acid were mixed in a new clear bottom 384-well plate. This plate was then incubated at room temperature for 30 minute. The absorbance at 490 nm was measured on Envision plate reader.
Compound IC50 values were calculated using the counts of 500 nM of a reference standard treatment as one hundred percent inhibition, and counts of no compound but DMSO treatment as zero percent inhibition.

Test [1] has as its target T2, indoleamine 2,3-dioxygenase (IDO) (Homo sapiens, UniProt P14902).
T2 construct: host or cells: HeLa cells stimulated with IFNγ (25 ng/mL)
The test is described as follows: HeLa cell-based indoleamine 2,3-dioxygenase (IDO) assay (kynurenine production). Particulars: HeLa cells, IFNγ 25 ng/mL, 48 hour incubation, absorbance at 480 nm. How it is done: Assessment of inhibitor activity in HeLa cell-based indoleamine 2,3-dioxygenase (IDO) assay:
HeLa (ATCC® CCL-2) cells were obtained from the ATCC® and cultured in Dulbecco's Modified Eagle Medium supplemented with 4.5 g/L glucose, […] (#10-013-CV, Corning), 2 mM L-alanyl-L-glutamine dipeptide (#35050-061, Gibco), 100U/mL penicillin, 100 μg/mL streptomycin (#SV30010, HyClone) and 10% fetal bovine serum (#SH30071.03 HyClone). Cells were maintained in a humidified incubator at 37° C. in 5% CO2.
IDO activity was assessed as a function of kynurenine production as follows: HeLa cells were seeded in a 96-well culture plate at a density of 5,000 cells/well and allowed to equilibrate overnight. After 24 hours, the media was aspirated and replaced with media containing IFNγ (#285-IF/CF, R&D Systems) at a final concentration of 25 ng/mL. A serial dilution of each test compound was added to the cells in a total volume of 200 μL of culture medium. After a further 48 hour incubation, 170 μL of supernatant was transferred from each well to a fresh 96-well plate. 12.1 μL of 6.1N trichloroacetic acid (#T0699, Sigma-Aldrich) was added to each well and mixed, followed by incubation at 65° C. for 20 minutes to hydrolyze N-formylkynurenine, the product of indoleamine 2,3-dioxygenase, to kynurenine. The reaction mixture was then centrifuged for 10 mins at 500×g to sediment the precipitate. 100 μL of the supernatant was transferred from each well to afresh 96-well plate. 100 μl of 2% (w/v) p-dimethylaminobenzaldehyde (#15647-7, Sigma-Aldrich) in acetic acid (#A6283, Sigma-Aldrich) was added to each well mixed and incubated at room temperature for 20 mins. Kynurenine concentrations were determined by measuring absorbance at 480 nm and calibrating against an L-kynurenine (#K8625, Sigma-Aldrich) standard curve using a SPECTRAMAX® M2e microplate reader (Molecular Devices). The percentage activity at each inhibitor concentration was determined and IC50 values assessed using nonlinear regression.

The structures appear in SMILES notation.

T2 sequence (P14902 whole entry): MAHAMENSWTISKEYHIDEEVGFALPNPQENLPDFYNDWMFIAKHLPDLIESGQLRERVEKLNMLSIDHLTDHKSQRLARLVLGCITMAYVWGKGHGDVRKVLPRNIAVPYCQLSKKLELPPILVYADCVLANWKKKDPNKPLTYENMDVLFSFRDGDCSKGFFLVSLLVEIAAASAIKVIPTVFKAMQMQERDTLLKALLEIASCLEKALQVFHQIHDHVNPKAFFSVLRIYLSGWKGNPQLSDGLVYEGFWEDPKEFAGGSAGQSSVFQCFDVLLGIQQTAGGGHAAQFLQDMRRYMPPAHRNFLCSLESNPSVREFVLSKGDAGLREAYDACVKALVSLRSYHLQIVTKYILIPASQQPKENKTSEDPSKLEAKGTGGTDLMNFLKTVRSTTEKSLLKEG
T1 sequence (P14902 whole entry): as above

In the case of `C[C@@H](Nc1nc2ccc(Cl)cc2o1)[C@H]1CC[C@@H](c2ccnc3ccc(F)cc32)CC1` [Example 11, 6-chloro-N-((R)-1-((cis)-4-(6-fluoroquinolin-4-yl)cyclohexyl)ethyl)benzo[d]oxazol-2-amine], the IC50 (at human IDO1; in test [1]) was 40.9 nM throughout. `C[C@@H](c1nc2ccc(F)cc2[nH]1)[C@H]1CC[C@@H](c2ccnc3ccc(F)cc32)CC1` [Example 3, 6-fluoro-4-((cis)-4-((R)-1-(6-fluoro-1H-benzo[d]imidazol-2-yl)ethyl)cyclohexyl)quinoline]: the IC50 at human IDO1 is 2.7 nM; in test [1], 1.5 nM. Consider `C[C@@H](c1nc2ncc(Cl)cc2[nH]1)[C@H]1CC[C@@H](c2ccnc3ccc(F)cc32)CC1` [Example 6, 4-((cis)-4-((R)-1-(6-chloro-1H-imidazo[4,5-b]pyridin-2-yl)ethyl)cyclohexyl)-6-fluoroquinoline], for which the IC50 turned out to be 7 nM on human IDO1 and 4.5 nM in test [1]. Taken in the same sequence, the figures for `CCC(c1nc2ccc(Cl)cc2[nH]1)[C@H]1CC[C@H](Oc2ccnc3ccccc23)CC1` (single isomer, unassigned) [Example 13-2, 4-(((trans)-4-(1-(6-chloro-1H-benzo[d]imidazol-2-yl)propyl)cyclohexyl)oxy)quinoline] were 3.4 nM and 8.9 nM. In the case of `COc1ccc2nc(N[C@H](C)[C@H]3CC[C@@H](c4ccnc5ccc(F)cc54)CC3)[nH]c2c1` [Example 9, N-((R)-1-((cis)-4-(6-fluoroquinolin-4-yl)cyclohexyl)ethyl)-6-methoxy-1H-benzo[d]imidazol-2-amine], the concentration for half-maximal inhibition (IC50) on human IDO1 came out at 263 nM.

Consider `C[C@@H](Nc1nc2ccc(Cl)cc2s1)[C@H]1CC[C@@H](c2ccnc3ccc(F)cc32)CC1` [Example 8, 6-chloro-N—((R)-1-((cis)-4-(6-fluoroquinolin-4-yl)cyclohexyl)ethyl)benzo[d]thiazol-2-amine], for which the IC50 on human IDO1 was found to be 730 nM. As to `CC[C@H](c1nc2ccc(Cl)cc2[nH]1)[C@H]1CC[C@@H](c2ccnc3ccc(F)cc32)CC1` (single isomer, unassigned) [Example 15-4, 4-(4-(1-(6-chloro-1H-benzo[d]imidazol-2-yl)propyl)cyclohexyl)-6-fluoroquinoline], the IC50 at human IDO1 came to 6.6 nM; in test [1], 9.5 nM. The corresponding values for `CC(c1nc2ccc(Cl)cc2[nH]1)C1CCC(c2ccnc3ccccc23)CC1` (single isomer, unassigned) [Example 16-2, (±)-4-(4-(1-(6-chloro-1H-benzo[d]imidazol-2-yl)ethyl)cyclohexyl)quinoline] are 4.5 nM and 5.7 nM. Take `CCC(c1nc2ccc(Cl)cc2[nH]1)[C@H]1CC[C@@H](Oc2ccnc3ccccc23)CC1` (stereo partly drawn) [Example 51, 4-(((1s,4s)-4-(1-(6-chloro-1H-benzo[d]imidazol-2-yl)propyl)cyclohexyl)oxy)quinoline]: the concentration for half-maximal inhibition (IC50) on human IDO1 was 1060 nM. Consider `C=CC[C@@H](c1nc2ccc(Cl)cc2[nH]1)[C@H]1CC[C@@H](c2ccnc3ccc(F)cc32)CC1` [Example 32, 4-((1S,4s)-4-((R)-1-(6-chloro-1H-benzo[d]imidazol-2-yl)but-3-en-1-yl)cyclohexyl)-6-fluoroquinoline], for which the values for the concentration for half-maximal inhibition (IC50) (at human IDO1; in test [1]) were 2 nM and 2.8 nM, respectively. As for `CCC(c1nc2ccc(Cl)cc2[nH]1)[C@H]1CC[C@H](Oc2ccnc3ccccc23)CC1` (mixture of isomers) [Example 13, 4-(((trans)-4-(1-(6-chloro-1H-benzo[d]imidazol-2-yl)propyl)cyclohexyl)oxy)quinoline], the IC50 at human IDO1 amounted to 3.4 nM. Same read-out and setting: with `C[C@@H](Nc1nc2ccccc2s1)[C@H]1CC[C@@H](c2ccnc3ccc(F)cc32)CC1` [Example 10] the figure was 194 nM. Take `C[C@@H](c1nc2ccccc2[nH]1)[C@H]1CC[C@@H](c2ccnc3ccc(F)cc32)CC1` [Example 1, 4-((cis)-4-((R)-1-(1H-benzo[d]imidazol-2-yl)ethyl)cyclohexyl)-6-fluoroquinoline]: the IC50 is 5.2 nM at human IDO1 and 4.7 nM in test [1].

In the case of `C[C@@H](c1nc2ncccc2[nH]1)[C@H]1CC[C@@H](c2ccnc3ccc(F)cc32)CC1` [Example 7, 4-((cis)-4-((R)-1-(1H-imidazo[4,5-b]pyridin-2-yl)ethyl)cyclohexyl)-6-fluoroquinoline], the figures for the IC50 (at human IDO1; in test [1]) were 23.2 nM and 30.1 nM, respectively.

Consider `CCC(c1nc2ccc(Cl)cc2[nH]1)[C@H]1CC[C@H](Oc2ccnc3ccccc23)CC1` (single isomer, unassigned) [Example 13-1, 4-(((trans)-4-(1-(6-chloro-1H-benzo[d]imidazol-2-yl)propyl)cyclohexyl)oxy)quinoline], for which the IC50 on human IDO1 is 4.1 nM; in test [1], 5.7 nM. Turning to `C[C@@H](c1nc2ccc(Cl)cc2[nH]1)[C@H]1CC[C@@H](c2ccnc3ccc(F)cc32)CC1` [Example 2, 4-((cis)-4-((R)-1-(6-chloro-1H-benzo[d]imidazol-2-yl)ethyl)cyclohexyl)-6-fluoroquinoline], the half-maximal inhibitory concentration (IC50) was 1.8 nM on human IDO1 and 1.1 nM in test [1]. On to `CC[C@H](c1nc2ccc(Cl)cc2[nH]1)[C@H]1CC[C@@H](c2ccnc3ccc(F)cc32)CC1` (single isomer, unassigned) [Example 15-3, 4-(4-(1-(6-chloro-1H-benzo[d]imidazol-2-yl)propyl)cyclohexyl)-6-fluoroquinoline], for which the IC50 at human IDO1 amounted to 0.7 nM; in test [1], 3.5 nM. In the case of `CC[C@H](c1nc2ccc(Cl)cc2[nH]1)[C@H]1CC[C@@H](c2ccnc3ccc(F)cc32)CC1` (single isomer, unassigned) [Example 15-1, 4-(4-(1-(6-chloro-1H-benzo[d]imidazol-2-yl)propyl)cyclohexyl)-6-fluoroquinoline], the IC50 on human IDO1 is 40.6 nM.

Usually IC50 stands for the point on the concentration scale where inhibition reaches its midpoint.
